Measured values: ChEMBL document CHEMBL1146745, “Studies on anti-Helicobacter pylori agents. Part 3: A novel, efficacious cephem derivative, FR193879” (Bioorg Med Chem Lett, 2004)
Values after ≈ are worked out from the molar mass of the structure shown. Each block holds one compound with its values, some of them ahead of it.

What was measured:
[1] = Partition coefficient by HPLC retention as an index of polarity; assay type: ADME; settings: octanol/water
[2] = Solubility at a pH of 2.0; assay type: physicochemical; settings: pH 2
[3] = Solubility at a pH of 4.0; assay type: physicochemical; settings: pH 4
Canis familiaris = assay: Non-toxic dose in dogs after 4 weeks of oral administration; assay type: functional, Canis lupus familiaris
Helicobacter pylori [4] = assay: Minimum inhibitory concentration against Helicobacter pylori FP1757; assay type: functional
Helicobacter pylori [5] = assay: Minimum inhibitory activity against Helicobacter pylori FP1836; assay type: functional
Rattus norvegicus [6] = assay: In vivo gastric mucosa concentration administered perorally at 20 mg/kg was determined in rats at 0.5 hr; assay type: functional; settings: route oral
Rattus norvegicus [7] = assay: In vivo gastric mucosa concentration administered perorally at 20 mg/kg was determined in rats at 1 hr; assay type: functional; settings: route oral
Rattus norvegicus [8] = assay: In vivo gastric mucosa concentration administered perorally at 20 mg/kg was determined in rats at 2 hr; assay type: functional; settings: route oral
Rattus norvegicus [9] = assay: In vivo gastric mucosa concentration administered perorally at 20 mg/kg was determined in rats at 4 hr; assay type: functional; settings: route oral
Rattus norvegicus [10] = assay: Recovery rate from urine and bile was determined after iv administration at 20 mg/kg in rats; assay type: functional, organism-based; parameters: dose 20 mg/kg
[11] = Therapeutic efficacy at a dose of 0.1 mg/kg; assay type: ADME, organism-based; parameters: dose 0.1 mg/kg; settings: in vivo
[12] = Therapeutic efficacy at a dose of 0.32 mg/kg; assay type: ADME, organism-based; parameters: dose 0.32 mg/kg; settings: in vivo
[13] = Therapeutic efficacy at an oral dose of 0.032 mg/kg in mouse; assay type: ADME, organism-based; parameters: dose 0.032 mg/kg, route oral; settings: in vivo
[14] = Therapeutic efficacy at an oral dose of 0.1 mg/kg in mouse; assay type: ADME, organism-based; parameters: dose 0.1 mg/kg, route oral; settings: in vivo
[15] = Therapeutic efficacy at an oral dose of 0.125 mg/kg in guinea pig; assay type: ADME, organism-based; parameters: dose 0.125 mg/kg, route oral; settings: in vivo
[16] = Therapeutic efficacy at an oral dose of 0.32 mg/kg in mouse; assay type: ADME, organism-based; parameters: dose 0.32 mg/kg, route oral; settings: in vivo
[17] = Therapeutic efficacy at an oral dose of 0.5 mg/kg in guinea pig; assay type: ADME, organism-based; parameters: dose 0.5 mg/kg, route oral; settings: in vivo
[18] = Therapeutic efficacy at an oral dose of 2 mg/kg in guinea pig; assay type: ADME, organism-based; parameters: dose 2 mg/kg, route oral; settings: in vivo
[19] = Retention time by HPLC as an index of polarity
Helicobacter pylori [20] = assay: Minimum inhibitory activity against Helicobacter pylori FP1757; assay type: functional
Helicobacter pylori [21] = assay: Minimum inhibitory activity against clarithromycin- and metronidazole-resistant strain 16021; assay type: functional
Helicobacter pylori [22] = assay: Minimum inhibitory activity against clarithromycin- and metronidazole-resistant strain 16043; assay type: functional
Helicobacter pylori [23] = assay: Minimum inhibitory activity against clarithromycin- and metronidazole-resistant strain 15069; assay type: functional
Bacteroides fragilis [24] = assay: Stability towards beta-lactamase was determined in […] FP784; assay type: functional, organism-based
Bacteroides fragilis [25] = assay: Relative stability towards beta-lactamase was determined in […] FP784; assay type: functional

Compound: Cc1nnc(SC2=C(C(=O)O)N3C(=O)C(NC(=O)Cc4ccccc4)[C@H]3SC2)s1 (some centres undefined)
HPLC retention time [1]: 10 min
solubility [2]: 53 µg/mL (≈ 118 µM)
solubility [3]: 1050 µg/mL (≈ 2340 µM)
Dose (Canis familiaris): <32 mg/kg
MIC (Helicobacter pylori [4]): 0.00156 µg/mL (≈ 0.00348 µM)
MIC50 (Helicobacter pylori [5]): 0.00313 µg/mL (≈ 0.00698 µM)
Gastric concentration (Rattus norvegicus [6]): 89 µg/g
Gastric concentration (Rattus norvegicus [7]): 83 µg/g
Gastric concentration (Rattus norvegicus [8]): 48 µg/g
Gastric concentration (Rattus norvegicus [9]): 23 µg/g
Recovery rate (Rattus norvegicus [10]): 33%
Ratio [11]: 2
Ratio [12]: 5
Ratio [13]: 1
Ratio [14]: 2
Ratio [15]: 0
Ratio [16]: 5
Ratio [17]: 2
Ratio [18]: 5
HPLC retention time [19]: 10 min

Compound: O=C(Cc1ccccc1)NC1C(=O)N2C(C(=O)O)=C(Sc3cnns3)CS[C@H]12 (some centres undefined)
Recovery rate (Rattus norvegicus [10]): 21%

solubility [2]: 125 µg/mL (≈ 254 µM)
solubility [3]: 1820 µg/mL (≈ 3700 µM)
MIC50 (Helicobacter pylori [20]): 0.00039 µg/mL (≈ 0.000793 µM)
MIC50 (Helicobacter pylori [5]): 0.00313 µg/mL (≈ 0.00637 µM)
Ratio [13]: 2
Ratio [14]: 1
Ratio [15]: 0
Ratio [16]: 5
Ratio [17]: 0
Ratio [18]: 2
HPLC retention time [19]: 9.9 min
Compound: O=C(O)Cc1csc(SC2=C(C(=O)O)N3C(=O)[C@@H](NC(=O)Cc4ccccc4)[C@H]3SC2)n1
Gastric concentration (Rattus norvegicus [6]): 377 µg/g
Gastric concentration (Rattus norvegicus [7]): 150 µg/g
Gastric concentration (Rattus norvegicus [8]): 111 µg/g
Gastric concentration (Rattus norvegicus [9]): 63 µg/g

Compound: O=C(N[C@H](CO)[C@H](O)c1ccc([N+](=O)[O-])cc1)C(Cl)Cl [CHLORAMPHENICOL]
MIC (Helicobacter pylori [21]): 50 µg/mL (≈ 155 µM)
MIC (Helicobacter pylori [22]): 50 µg/mL (≈ 155 µM)
MIC (Helicobacter pylori [23]): 25 µg/mL (≈ 77.4 µM)

Km (Bacteroides fragilis [24]): 31.7 µg/mL
Compound: O=C(Cc1cccs1)N[C@@H]1C(=O)N2C(C(=O)[O-])=C(C[n+]3ccccc3)CS[C@H]12

Compound: CC1(C)S[C@@H]2[C@H](NC(=O)[C@H](N)c3ccc(O)cc3)C(=O)N2[C@H]1C(=O)O [AMOXICILLIN]
MIC (Helicobacter pylori [21]): 0.025 µg/mL (≈ 0.0684 µM)
MIC (Helicobacter pylori [22]): 0.05 µg/mL (≈ 0.137 µM)
MIC (Helicobacter pylori [23]): 0.2 µg/mL (≈ 0.547 µM)
MIC50 (Helicobacter pylori [20]): 0.0125 µg/mL (≈ 0.0342 µM)
MIC50 (Helicobacter pylori [5]): 0.05 µg/mL (≈ 0.137 µM)
Km (Bacteroides fragilis [24]): 27.3 µg/mL
Vmax (Bacteroides fragilis [24]): 0.0175

Compound: NC(=O)Cc1csc(SC2=C(C(=O)O)N3C(=O)[C@@H](NC(=O)Cc4ccccc4)[C@H]3SC2)n1
solubility [2]: 431 µg/mL (≈ 879 µM)
solubility [3]: 2210 µg/mL (≈ 4500 µM)
Dose (Canis familiaris): >100 mg/kg
MIC (Helicobacter pylori [21]): 0.0016 µg/mL (≈ 0.00326 µM)
MIC (Helicobacter pylori [22]): 0.0016 µg/mL (≈ 0.00326 µM)
MIC (Helicobacter pylori [23]): 0.0063 µg/mL (≈ 0.0128 µM)
MIC50 (Helicobacter pylori [20]): 0.00078 µg/mL (≈ 0.00159 µM)
MIC50 (Helicobacter pylori [5]): 0.00313 µg/mL (≈ 0.00638 µM)
Gastric concentration (Rattus norvegicus [6]): 385 µg/g
Gastric concentration (Rattus norvegicus [7]): 163 µg/g
Gastric concentration (Rattus norvegicus [8]): 68 µg/g
Gastric concentration (Rattus norvegicus [9]): 38 µg/g
Recovery rate (Rattus norvegicus [10]): 68%
Ratio [13]: 1
Ratio [14]: 4
Ratio [15]: 0
Ratio [16]: 5
Ratio [17]: 3
Ratio [18]: 5
Km (Bacteroides fragilis [24]): 19.4 µg/mL
Vmax (Bacteroides fragilis [24]): 0.647
Ratio (Bacteroides fragilis [25]): 1.06
HPLC retention time [19]: 6.2 min

HPLC retention time [1]: 1 min
MIC (Helicobacter pylori [4]): 0.00078 µg/mL (≈ 0.00166 µM)
Ratio [11]: 0
Ratio [12]: 1
Compound: Cc1nnc(SC2=C(C(=O)O)N3C(=O)[C@@H](NC(=O)Cc4csc(N)n4)[C@H]3SC2)s1

Compound: O=C(Cc1ccccc1)NC1C(=O)N2C(C(=O)O)=C(Sc3nccs3)CS[C@H]12 (some centres undefined)
Recovery rate (Rattus norvegicus [10]): 63%

Compound: Cc1ncc([N+](=O)[O-])n1CCO [METRONIDAZOLE]
MIC (Helicobacter pylori [21]): 50 µg/mL (≈ 292 µM)
MIC (Helicobacter pylori [22]): 50 µg/mL (≈ 292 µM)
MIC (Helicobacter pylori [23]): 25 µg/mL (≈ 146 µM)

Compound: O=C(Cc1ccccc1)NC1C(=O)N2C(C(=O)O)=C(Sc3nncs3)CS[C@H]12 (some centres undefined)
Recovery rate (Rattus norvegicus [10]): 9%
